Measured values published in patent US6914045B2, “Glycopeptide antibiotics” (Wyeth Holdings Corporation, priority 2001, dated 2005).
Converted amounts (≈) assume the structure as drawn.

Columns and labels:
[1] = test system: Staphylococcus aureus-SMITH (GC 4543); assay: acute lethal infection in mice; type: in vivo; conditions: acute lethal infection, female CD-1 mice, intraperitoneal challenge, intravenous 30 min. after infection, 7 day survival
Method: Methods for in Vivo Antibacterial Evaluation
The therapeutic effects of glycopeptide antibiotics of Formula I are determined against acute lethal infections with S. aureus (strain Smith), a penicillin resistant strain of S. pneumoniae (strain GC 1894), and a vancomycin resistant strain of E. fecalis (strain GC 6189 and GC 2246). Female mice, CD-1 (Charles River Laboratories), 20+/−2 gm, are challenged by intraperitoneal injection of sufficient bacteria (suspended in /trypticase Soy Broth or hog gastric mucin) to kill non-treated controls within 24-48 hr. Antibacterial agents, contained in 0.2 mL of saline or 5% dextrose solution, are administered intravenously 30 min. after infection. Five mice are treated at each dose level. The 7 day survival ratios from 3 separate tests are pooled for calculation of median effective dose (ED50).

[2] = test system: Staphylococcus sp.; assay: in vitro antibacterial evaluation, MIC by broth dilution; type: cell-based; conditions: broth dilution, 18 hours at 35° C.
Outline: (§1)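 Broth dilution per NCCLS standard M7-A2 in Muller-Hinton II […], with an inoculum of 5×10^5 CFU/mL and antibiotic spanning 64-0.06 μg/mL. The MIC is the lowest concentration that inhibits growth of the organism.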

[3] = test system: Streptococcus sp.; assay: as above; type: cell-based; conditions: broth dilution, 18 hours at 35° C.
Outline: as §1

[4] = test system: Escherichia coli; assay: as above; type: cell-based; conditions: 18 hours at 35° C.
Outline: as §1

[5] = test system: Enterococcus sp.; assay: as above; type: cell-based; conditions: broth dilution, 18 hours at 35° C.
Outline: as §1

CC(c1ccccc1)C1NC(=O)CNC(=O)C(CO)NC(=O)C(C(O)C2CNC(=N)N2C2OC(CO)C(O)C(O)C2O)NC(=O)C(C(O)C2CNC(=N)N2)NC(=O)C(Cc2ccc(OC3OC(CO)C(OC4OC5COC(Cc6ccc(Cl)cc6)OC5C(O)C4O)C(O)C3O)cc2)NC1=O (stereo not drawn) [Example 120, Cyclo[glycyl-β-methylphenylalanyl-O-[4-O-[4,6-O-(4-chlorophenethylidene)hexopyranosyl]-hexopyranosyl]tyrosyl-3-(2-iminoimidazolidin-4-yl)seryl-3-(3-hexopyranosyl-2-iminoimidazolidin-4-yl)serylseryl]]
median effective dose (ED50), Staphylococcus aureus-SMITH (GC 4543) [1]: 0.06 mg/kg | MIC Coagulase Negative Staphylococcus (GC 4547) [2]: 1 µg/mL (≈ 0.698 µM) | MIC Coagulase Negative Staphylococcus (GC 4548) [2]: <0.5 µg/mL | MIC Coagulase Negative Staphylococcus (GC 4549) [2]: <0.5 µg/mL | MIC Coagulase Negative Staphylococcus (GC 4551) [2]: <0.5 µg/mL | MIC Coagulase Negative Staphylococcus (GC 6257) [2]: <0.5 µg/mL | MIC Staphylococcus aureus (ATCC 29213) [2]: <0.5 µg/mL | MIC Staphylococcus aureus (GC 1131) [2]: <0.5 µg/mL | MIC Staphylococcus aureus (GC 3051) [2]: <0.5 µg/mL | MIC Staphylococcus aureus (GC 3053) [2]: 1 µg/mL (≈ 0.698 µM) | MIC Staphylococcus aureus (GC 4541) [2]: <0.5 µg/mL | MIC Staphylococcus aureus (GC 4542) [2]: <0.5 µg/mL | MIC Staphylococcus aureus (GC 4544) [2]: <0.5 µg/mL | MIC Staphylococcus aureus (GC 4545) [2]: <0.5 µg/mL | MIC Staphylococcus aureus-SMITH (GC 4543) [2]: <0.5 µg/mL | MIC Staphylococcus haemolyticus (GC 4546) [2]: <0.5 µg/mL | MIC Staphylococcus aureus (GC 1131) ([2]; inoculum 5×10^5 CFU/mL, strain GC 1131): <0.5 µg/mL | MIC Staphylococcus aureus (ATCC 29213) ([2]; strain ATCC 29213): <0.5 µg/mL | MIC Staphylococcus aureus (GC 3051) ([2]; strain GC 3051): <0.5 µg/mL | MIC Staphylococcus aureus (GC 3053) ([2]; strain GC 3053): 1 µg/mL (≈ 0.698 µM) | MIC Staphylococcus aureus (GC 4541) ([2]; strain GC 4541): <0.5 µg/mL | MIC Staphylococcus aureus (GC 4542) ([2]; strain GC 4542): <0.5 µg/mL | MIC Staphylococcus aureus (GC 4544) ([2]; strain GC 4544): <0.5 µg/mL | MIC Staphylococcus aureus (GC 4545) ([2]; strain GC 4545): <0.5 µg/mL | MIC Staphylococcus haemolyticus (GC 4546) ([2]; strain GC 4546): <0.5 µg/mL | MIC Coagulase Negative Staphylococcus (GC 4547) ([2]; strain GC 4547): 1 µg/mL (≈ 0.698 µM) | MIC Coagulase Negative Staphylococcus (GC 4548) ([2]; strain GC 4548): <0.5 µg/mL | MIC Coagulase Negative Staphylococcus (GC 4549) ([2]; strain GC 4549): <0.5 µg/mL | MIC Coagulase Negative Staphylococcus (GC 4551) ([2]; strain GC 4551): <0.5 µg/mL | MIC Coagulase Negative Staphylococcus (GC 6257) ([2]; strain GC 6257): <0.5 µg/mL | MIC Staphylococcus aureus-SMITH (GC 4543) ([2]; strain SMITH GC 4543): <0.5 µg/mL | MIC Streptococcus agalactiae (GC 4564) ([3]; Streptococcus agalactiae (GC 4564)): <0.5 µg/mL | MIC Streptococcus pneumoniae (ATCC 6301) ([3]; Streptococcus pneumoniae (ATCC 6301)): <0.5 µg/mL | MIC Streptococcus pneumoniae (GC 1894) ([3]; Streptococcus pneumoniae (GC 1894)): <0.5 µg/mL | MIC Streptococcus pneumoniae (GC 4565) ([3]; Streptococcus pneumoniae (GC 4565)): <0.5 µg/mL | MIC Streptococcus pyogenes (GC 4563) ([3]; Streptococcus pyogenes (GC 4563)): <0.5 µg/mL | MIC Streptococcus pneumoniae (ATCC 6301) ([3]; strain ATCC 6301): <0.5 µg/mL | MIC Streptococcus pneumoniae (GC 1894) ([3]; strain GC 1894): <0.5 µg/mL | MIC Streptococcus pyogenes (GC 4563) ([3]; strain GC 4563): <0.5 µg/mL | MIC Streptococcus agalactiae (GC 4564) ([3]; strain GC 4564): <0.5 µg/mL | MIC Streptococcus pneumoniae (GC 4565) ([3]; strain GC 4565): <0.5 µg/mL | MIC Escherichia coli (ATCC 25922) ([4]; strain ATCC 25922): 16 µg/mL (≈ 11.2 µM) | MIC Escherichia coli (GC 4559) ([4]; strain GC 4559): 16 µg/mL (≈ 11.2 µM) | MIC Escherichia coli (GC 4560) ([4]; strain GC 4560): <0.5 µg/mL | MIC Enterococcus avium (GC 4558) ([5]; Enterococcus avium (GC 4558)): 1 µg/mL (≈ 0.698 µM) | MIC Enterococcus faecalis (ATCC 29212) ([5]; Enterococcus faecalis (ATCC 29212)): 1 µg/mL (≈ 0.698 µM) | MIC Enterococcus faecalis (GC 2242) ([5]; Enterococcus faecalis (GC 2242)): 1 µg/mL (≈ 0.698 µM) | MIC Enterococcus faecalis (GC 2691) ([5]; Enterococcus faecalis (GC 2691)): 1 µg/mL (≈ 0.698 µM) | MIC Enterococcus faecalis (GC 3059) ([5]; Enterococcus faecalis (GC 3059)): 1 µg/mL (≈ 0.698 µM) | MIC Enterococcus faecalis (GC 4552) ([5]; Enterococcus faecalis (GC 4552)): 1 µg/mL (≈ 0.698 µM) | MIC Enterococcus faecalis (GC 4553) ([5]; Enterococcus faecalis (GC 4553)): 1 µg/mL (≈ 0.698 µM) | MIC Enterococcus faecalis (GC 4554) ([5]; Enterococcus faecalis (GC 4554)): 1 µg/mL (≈ 0.698 µM) | MIC Enterococcus faecalis (GC 6189) ([5]; Enterococcus faecalis (GC 6189)): 1 µg/mL (≈ 0.698 µM) | MIC Enterococcus faecium (GC 2243) ([5]; Enterococcus faecium (GC 2243)): 1 µg/mL (≈ 0.698 µM) | MIC Enterococcus faecium (GC 4556) ([5]; Enterococcus faecium (GC 4556)): 1 µg/mL (≈ 0.698 µM) | MIC Enterococcus faecium (GC 4557) ([5]; Enterococcus faecium (GC 4557)): 1 µg/mL (≈ 0.698 µM) | MIC Enterococcus faecalis (ATCC 29212) ([5]; strain ATCC 29212): 1 µg/mL (≈ 0.698 µM) | MIC Enterococcus faecalis (GC 2242) ([5]; strain GC 2242): 1 µg/mL (≈ 0.698 µM) | MIC Enterococcus faecium (GC 2243) ([5]; strain GC 2243): 1 µg/mL (≈ 0.698 µM) | MIC Enterococcus faecalis (GC 2691) ([5]; strain GC 2691): 1 µg/mL (≈ 0.698 µM) | MIC Enterococcus faecalis (GC 3059) ([5]; strain GC 3059): 1 µg/mL (≈ 0.698 µM) | MIC Enterococcus faecalis (GC 4552) ([5]; strain GC 4552): 1 µg/mL (≈ 0.698 µM) | MIC Enterococcus faecalis (GC 4553) ([5]; strain GC 4553): 1 µg/mL (≈ 0.698 µM) | MIC Enterococcus faecalis (GC 4554) ([5]; strain GC 4554): 1 µg/mL (≈ 0.698 µM) | MIC Enterococcus faecium (GC 4556) ([5]; strain GC 4556): 1 µg/mL (≈ 0.698 µM) | MIC Enterococcus faecium (GC 4557) ([5]; strain GC 4557): 1 µg/mL (≈ 0.698 µM) | MIC Enterococcus avium (GC 4558) ([5]; strain GC 4558): 1 µg/mL (≈ 0.698 µM) | MIC Enterococcus faecalis (GC 6189) ([5]; strain GC 6189): 1 µg/mL (≈ 0.698 µM)
